{"source": "patent US20110274808A1", "about": "“METHODS FOR INCREASING THE PALATABILITY OF COMPANION ANIMAL FOOD COMPOSITIONS” (Hill's Pet Nutrition, Inc., priority 2008, published 2011)", "key": {"GSH:GSSG ratio": {"test_system": "GSH:GSSG ratio", "test": "Change in GSH:GSSG ratio in blood lymphocytes of dogs fed dl-alpha-lipoic acid in extruded food", "format": "in vivo, dog", "from_the_text": "(§1) Thirty (30) adult, random source, dogs were utilized for this study. Dogs were at least 10 months of age, not pregnant, not lactating and of reasonable body weight prior to start of test. Animals were randomized into 5 groups for dietary treatment with 3 males and 3 females per each group.\nAll dogs were fed a control food (0 ppm dl-alpha-lipoic acid added) that met or exceeded all recommendations for nutrients as proposed by the American Association of Feed Control Officials (AAFCO 2000) during a 2 week prefeeding period (Table 2). Following the prefeeding period dogs were randomized into 5 treatment groups with one of the following dl-alpha lipoic acid target-inclusions (dry matter basis): 0 ppm, 150 ppm, 1500 ppm, 3000 ppm, 4500 ppm. In all diets, control and alpha lipoic acid, Vitamin E was added and was present at a level of 600-1000 International Units and Vitamin C was added at levels of 100-200 ppm.\nBlood was collected aseptically for complete blood count, and blood biochemistry analysis 2 weeks prior to start and again at 0, 28, 56, 84, 112, 140 and 168 days of the study. In addition, 15 ml of whole blood was collected for isolation of lymphocytes at day 0, 28 and 84 of the dietary intervention.\nHeparinzed whole blood was layered onto a 50 ml Accuspin conical centrifuge tube (Sigma Chemical) and an equal volume of Phosphate buffered saline (PBS) was added. Samples were centrifuged at 700 g for 30 minutes without brake. The monocyte layer was harvested, transferred to a 15 ml conical centrifuge tube, resuspended in 1-3 ml of PB, and centrifuged as before (First wash). A second wash was performed as the first wash. Finally, cells were harvested and suspended in perchloric acid (10% w/v) and frozen at −70° C. until analysis.\nSamples were transferred from −70° C. freezer into a cooler with dry ice in it. Vials were centrifuged at 12,000 rpm for 5 minutes in a refrigerated centrifuge. An aliquot of supernatant for glutathione (GSH) analysis was transferred to a conical test tube.\nDerivatization of the acid soluble extracts was by the method of Reed and coworkers (Fariss et al) as modified by Jones (Jones et al)\nBriefly, 150 μL extract or external standards were added into a 1.5 ml Eppendorf tube followed by addition of 20 μγ-Glu-Glu internal standard and 50 μL IAA added followed by mixing. The solution was adjusted to pH about 10 (purple color) by using KOH—KHCO3 working solution. Solutions were incubated 1 hr. under room temperature in the dark. Sanger's reagent was added at the same volume as of the total volume and the solution was incubated overnight (20 hrs) in the dark at room temperature.\nAfter incubation, the solution was centrifuged at 12000 rpm for 5 minutes with the supernatant transferred into another 1.5 ml eppendorf tube.\nSolvents and separation conditions were as described (Fariss, Jones). Levels of GSH and GSSG were quantified relative to authentic standards. Gamma-glutamyl-glutamate was used as an internal standard to assess derivatization efficiency.\nComparison of values for clinical chemistry, hematology and body weights vs baseline were analyzed by way of paired t-test on SAS for windows with significance set at P<0.05. Means of values at each measured time point were separated by a one-way ANOVA with significance set at P<0.05. The difference in GSH:GSSG between day 84 and baseline were analyzed between groups by way of SAS for windows in a one-way ANOVA with significance set at P<0.05."}, "[1]": {"test": "Six-month feeding safety study in dogs (body weight, physical examination, serum biochemistry, hematology)", "format": "in vivo", "from_the_text": "as §1\nAll dogs were fed a control food (0 ppm dl-alpha-lipoic acid added) that met or exceeded all recommendations for nutrients as proposed by the American Association of Feed Control Officials (AAFCO 2000) during a 2 week prefeeding period (Table 2). […]\nTest foods were the sole source of nutrients except for water. […] After dogs were selected and initial body weights taken, a food dose was calculated for each dog based on the expected ME of the food. Initial food dose calculations were based on the maintenance energy requirement (MER) for the dog modified by a factor to account for normal activity as calculated by the following formula: […]\nDogs were weighed weekly and had food doses adjusted as needed in order to feed enough food to maintain their optimal body weight. Optimal body weight was determined to be 3 on a 5 point scale. […] All measures of body weight and food intake were recorded. […]\nComparison of values for clinical chemistry, hematology and body weights vs baseline were analyzed by way of paired t-test on SAS for windows with significance set at P<0.05. […]"}, "[2]": {"test": "Change in body composition of dogs over 90 days", "format": "in vivo, dog", "details": "90 day treatment period", "from_the_text": "Table 4 illustrates the change in body composition of dogs fed a control diet compared with dogs fed a control plus fish oil and a control plus lipoic acid."}}}
{"smiles": "O=C(O)CCCCC1CCSS1", "note": "(racemic) [DL-Alpha Lipoic Acid, dl-alpha-lipoic acid]", "values": [{"measurement": "Difference in GSH:GSSG ratio - day 0 to day 84", "setting": "GSH:GSSG ratio; dogs, 150 ppm inclusion in extruded food", "result": "70 +/− 20"}, {"measurement": "Difference in GSH:GSSG ratio - day 0 to day 84", "setting": "GSH:GSSG ratio; dogs, 1,500 ppm inclusion in extruded food", "result": "24 +/− 7"}, {"measurement": "Difference in GSH:GSSG ratio - day 0 to day 84", "setting": "GSH:GSSG ratio; dogs, 3,000 ppm inclusion in extruded food", "result": "10 +/− 4"}, {"measurement": "Difference in GSH:GSSG ratio - day 0 to day 84", "setting": "GSH:GSSG ratio; dogs, 4,500 ppm inclusion in extruded food", "result": "50 +/− 36"}, {"measurement": "Effect on reduced glutathione (GSH) to oxidized glutathione (GSSG) ratio", "setting": "GSH:GSSG ratio; dogs, chronic feeding in diet", "result": "improves"}, {"measurement": "Safety of chronic feeding in diet", "setting": "[1]; dog, in vivo", "result": "safe and effective"}, {"measurement": "Body weight", "setting": "[1]; dogs, 4500 ppm inclusion group, 6 months", "result": "some weight loss occurred initially"}, {"measurement": "Change in weight compared with control and fish oil diets", "setting": "[2]", "result": "greatest change in weight"}]}
